The results in this text go back to ChEMBL document CHEMBL1909046, “DrugMatrix in vitro pharmacology data”.

One assay deals with Melanocortin receptor 3 (Homo sapiens, UniProt P41968).
Chain of Melanocortin receptor 3 (P41968 whole entry): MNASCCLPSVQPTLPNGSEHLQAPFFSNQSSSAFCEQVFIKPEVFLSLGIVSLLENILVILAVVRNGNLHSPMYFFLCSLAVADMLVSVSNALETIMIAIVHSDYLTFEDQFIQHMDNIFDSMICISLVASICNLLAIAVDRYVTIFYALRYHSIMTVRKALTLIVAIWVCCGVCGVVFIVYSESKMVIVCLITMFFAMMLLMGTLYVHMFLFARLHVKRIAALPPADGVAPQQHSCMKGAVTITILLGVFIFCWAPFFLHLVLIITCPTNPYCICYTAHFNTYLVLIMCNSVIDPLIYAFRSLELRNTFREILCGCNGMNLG
Test: not given
In kind it is cell membranes, Membrane. The note with it: hek293.
As for GOLD SODIUM THIOMALATE, the IC50 entry is recorded as “Not Active” and the Ki entry is listed as “Not Active”.
In the case of `CC[N+](CC)(CC)CCOc1cccc(OCC[N+](CC)(CC)CC)c1OCC[N+](CC)(CC)CC.[I-].[I-].[I-]` [GALLAMINE TRIETHIODIDE], the IC50 entry is given as “Not Active”.
On the same count and under the same terms, to `OCc1ccccc1` [BENZYL ALCOHOL] belongs “Not Active”.

Test system in the next assay: not listed separately
The assay is described as follows: DRUGMATRIX: Calcium Channel Type L, Phenylalkylamine radioligand binding (ligand: [3H] (-)-Desmethoxyverapamil (D-888)). The note with it: Not Active = under 50% inhibition at 10 µM. The format is cell membranes, Rattus norvegicus, Wistar, Brain, Membrane.
With GOLD SODIUM THIOMALATE, the IC50 entry is reported as “Not Active” and the Ki result is on record as “Not Active”.
For `CC[N+](CC)(CC)CCOc1cccc(OCC[N+](CC)(CC)CC)c1OCC[N+](CC)(CC)CC.[I-].[I-].[I-]` [GALLAMINE TRIETHIODIDE], the IC50 entry was “Not Active” and the Ki result is listed as “Not Active”.
As for `OCc1ccccc1` [BENZYL ALCOHOL], the IC50 result is on record as “Not Active” and the Ki entry is reported as “Not Active”.

The next assay deals with T1, Interstitial collagenase (Homo sapiens, UniProt P03956).
T1 sequence (P03956 whole entry): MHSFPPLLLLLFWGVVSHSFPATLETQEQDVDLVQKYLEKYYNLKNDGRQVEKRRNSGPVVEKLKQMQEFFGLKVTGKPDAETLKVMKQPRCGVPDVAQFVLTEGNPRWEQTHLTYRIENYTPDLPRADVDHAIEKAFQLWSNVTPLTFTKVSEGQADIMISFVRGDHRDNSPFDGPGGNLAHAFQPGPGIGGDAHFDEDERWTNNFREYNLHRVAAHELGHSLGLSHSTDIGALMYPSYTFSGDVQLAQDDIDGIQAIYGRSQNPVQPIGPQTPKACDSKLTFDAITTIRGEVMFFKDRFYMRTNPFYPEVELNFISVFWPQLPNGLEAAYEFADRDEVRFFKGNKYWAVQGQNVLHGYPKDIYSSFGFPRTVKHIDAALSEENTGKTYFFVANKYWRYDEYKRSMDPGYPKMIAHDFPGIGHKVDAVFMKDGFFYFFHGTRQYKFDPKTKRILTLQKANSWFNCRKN
Test: not given
The format is tissue-based, Rheumatoid synovial fibroblasts.
Conditions: not given
For GOLD SODIUM THIOMALATE, the IC50 entry is given as “Not Active” and the Ki entry was “Not Active”.
Consider `CC[N+](CC)(CC)CCOc1cccc(OCC[N+](CC)(CC)CC)c1OCC[N+](CC)(CC)CC.[I-].[I-].[I-]` [GALLAMINE TRIETHIODIDE], for which the IC50 result is recorded as “Not Active”.
Same read-out and setting: as for `OCc1ccccc1` [BENZYL ALCOHOL], the entry is “Not Active”.

Another assay deals with T2, Adenosine receptor A1 (Homo sapiens, UniProt P30542).
T2 sequence (P30542 whole entry): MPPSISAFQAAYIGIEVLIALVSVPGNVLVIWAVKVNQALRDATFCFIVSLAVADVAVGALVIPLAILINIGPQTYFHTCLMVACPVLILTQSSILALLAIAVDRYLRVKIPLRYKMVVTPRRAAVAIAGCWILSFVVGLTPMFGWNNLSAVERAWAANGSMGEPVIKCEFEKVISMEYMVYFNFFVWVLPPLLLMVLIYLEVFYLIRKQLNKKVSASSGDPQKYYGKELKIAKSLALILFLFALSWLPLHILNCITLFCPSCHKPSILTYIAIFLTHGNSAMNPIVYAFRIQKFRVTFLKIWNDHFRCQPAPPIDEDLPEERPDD
Test: not given
The format is cell membranes, CHO, Membrane. The note with it: cho.
Turning to GOLD SODIUM THIOMALATE, the IC50 result was “Not Active” and the Ki entry is recorded as “Not Active”.
Consider `CC[N+](CC)(CC)CCOc1cccc(OCC[N+](CC)(CC)CC)c1OCC[N+](CC)(CC)CC.[I-].[I-].[I-]` [GALLAMINE TRIETHIODIDE], for which the IC50 entry is given as “Not Active”.
Still for that read-out and setting: to `OCc1ccccc1` [BENZYL ALCOHOL] belongs “Not Active”.

The target of the next assay is D(3) dopamine receptor (Homo sapiens, UniProt P35462). The assay is described as follows: DRUGMATRIX: Dopamine D3 radioligand binding (ligand: [3H] Spiperone). In kind it is cell membranes, CHO, Membrane. The note with it: cho.
Chain of D(3) dopamine receptor (P35462 whole entry): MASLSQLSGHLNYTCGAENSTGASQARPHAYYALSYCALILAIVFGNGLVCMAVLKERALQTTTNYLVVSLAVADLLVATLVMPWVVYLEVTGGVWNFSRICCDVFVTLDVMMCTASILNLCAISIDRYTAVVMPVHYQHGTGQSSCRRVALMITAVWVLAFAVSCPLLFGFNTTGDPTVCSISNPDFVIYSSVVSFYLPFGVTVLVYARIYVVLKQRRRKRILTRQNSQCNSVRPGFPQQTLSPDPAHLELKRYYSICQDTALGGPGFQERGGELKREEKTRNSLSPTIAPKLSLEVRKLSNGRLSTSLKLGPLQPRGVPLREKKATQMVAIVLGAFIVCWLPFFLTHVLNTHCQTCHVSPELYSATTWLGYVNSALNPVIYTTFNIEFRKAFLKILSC
Regarding GOLD SODIUM THIOMALATE, the IC50 result is “Not Active” and the Ki result was “Not Active”.
For `CC[N+](CC)(CC)CCOc1cccc(OCC[N+](CC)(CC)CC)c1OCC[N+](CC)(CC)CC.[I-].[I-].[I-]` [GALLAMINE TRIETHIODIDE], the IC50 result is reported as “Not Active”.
For `OCc1ccccc1` [BENZYL ALCOHOL], the IC50 result is “Not Active”.

Test system in the next assay: not listed separately
The assay is described as follows: DRUGMATRIX: Phosphodiesterase PDE4 enzyme inhibition (substrate: [3H]cAMP + cAMP). As to conditions: u-937; Not Active = under 50% inhibition at 10 µM.
As to GOLD SODIUM THIOMALATE, the IC50 result was “Not Active” and the Ki entry was “Not Active”.
Take `CC[N+](CC)(CC)CCOc1cccc(OCC[N+](CC)(CC)CC)c1OCC[N+](CC)(CC)CC.[I-].[I-].[I-]` [GALLAMINE TRIETHIODIDE]: the IC50 result was “Not Active” and the Ki result is “Not Active”.
For `OCc1ccccc1` [BENZYL ALCOHOL], the IC50 entry is listed as “Not Active” and the Ki result was “Not Active”.

The target of another assay is Mitogen-activated protein kinase 1 (Homo sapiens, UniProt P28482). Description: DRUGMATRIX: Protein Serine/Threonine Kinase, ERK2 enzyme inhibition (substrate: Myelin Basic Protein). Details: species or system Escherichia coli. As to conditions: Not Active = under 50% inhibition at 10 µM.
Chain of Mitogen-activated protein kinase 1 (P28482 whole entry): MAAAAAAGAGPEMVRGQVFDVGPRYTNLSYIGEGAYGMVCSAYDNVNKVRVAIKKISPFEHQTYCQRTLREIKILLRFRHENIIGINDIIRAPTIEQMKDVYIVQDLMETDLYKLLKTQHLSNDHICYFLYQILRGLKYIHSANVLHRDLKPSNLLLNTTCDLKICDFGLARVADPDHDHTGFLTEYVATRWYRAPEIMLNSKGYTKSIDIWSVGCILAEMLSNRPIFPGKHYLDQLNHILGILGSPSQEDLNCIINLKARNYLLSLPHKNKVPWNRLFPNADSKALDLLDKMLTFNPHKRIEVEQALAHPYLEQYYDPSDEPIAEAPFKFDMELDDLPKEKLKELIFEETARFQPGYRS
Take GOLD SODIUM THIOMALATE: the IC50 result is “Not Active” and the Ki result is “Not Active”.
Turning to `CC[N+](CC)(CC)CCOc1cccc(OCC[N+](CC)(CC)CC)c1OCC[N+](CC)(CC)CC.[I-].[I-].[I-]` [GALLAMINE TRIETHIODIDE], the IC50 result is “Not Active”.
The same measure, in the same setting: as for `OCc1ccccc1` [BENZYL ALCOHOL], the entry is “Not Active”.

Test system in a further assay: not listed separately
The assay is described as follows: DRUGMATRIX: Glutamate, NMDA, Agonism radioligand binding (ligand: [3H] CGP-39653). The format is cell membranes, Rattus norvegicus, Wistar, Cerebral cortex, Membrane. The note with it: Not Active = under 50% inhibition at 10 µM.
In the case of GOLD SODIUM THIOMALATE, the IC50 result is recorded as “Not Active” and the Ki result is given as “Not Active”.
Turning to `CC[N+](CC)(CC)CCOc1cccc(OCC[N+](CC)(CC)CC)c1OCC[N+](CC)(CC)CC.[I-].[I-].[I-]` [GALLAMINE TRIETHIODIDE], the IC50 result is given as “Not Active” and the Ki entry is “Not Active”.
Turning to `OCc1ccccc1` [BENZYL ALCOHOL], the IC50 entry is given as “Not Active” and the Ki entry is “Not Active”.

For another assay, the target named is Platelet-activating factor receptor (Homo sapiens, UniProt P25105). The assay is described as follows: biochemical. The format is tissue-based. The note with it: platelet. Note: in other assays of this panel Not Active means under 50% inhibition at 10 µM.
Chain of Platelet-activating factor receptor (P25105 whole entry): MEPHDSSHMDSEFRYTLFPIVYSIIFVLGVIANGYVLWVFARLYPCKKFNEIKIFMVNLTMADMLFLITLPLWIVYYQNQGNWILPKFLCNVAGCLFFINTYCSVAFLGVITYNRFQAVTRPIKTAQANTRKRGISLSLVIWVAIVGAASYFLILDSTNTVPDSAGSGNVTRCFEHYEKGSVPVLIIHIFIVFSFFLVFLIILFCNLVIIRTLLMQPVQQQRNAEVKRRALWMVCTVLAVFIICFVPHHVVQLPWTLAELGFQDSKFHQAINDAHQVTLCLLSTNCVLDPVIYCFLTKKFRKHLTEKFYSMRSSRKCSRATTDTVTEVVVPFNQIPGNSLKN
For the compound GOLD SODIUM THIOMALATE, the IC50 entry is reported as “Not Active” and the Ki result is reported as “Not Active”.
In the case of `CC[N+](CC)(CC)CCOc1cccc(OCC[N+](CC)(CC)CC)c1OCC[N+](CC)(CC)CC.[I-].[I-].[I-]` [GALLAMINE TRIETHIODIDE], the IC50 result is “Not Active”.
The same measure, in the same setting: to `OCc1ccccc1` [BENZYL ALCOHOL] belongs “Not Active”.

For another assay, the target named is T3, 3-hydroxy-3-methylglutaryl-coenzyme A reductase (Homo sapiens, UniProt P04035).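 Note: enzyme inhibition assay of HMG-CoA reductase using radiolabeled [14C]HMG-CoA as substrate; in other assays of this panel Not Active means under 50% inhibition at 10 µM.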
T3 sequence (P04035 whole entry): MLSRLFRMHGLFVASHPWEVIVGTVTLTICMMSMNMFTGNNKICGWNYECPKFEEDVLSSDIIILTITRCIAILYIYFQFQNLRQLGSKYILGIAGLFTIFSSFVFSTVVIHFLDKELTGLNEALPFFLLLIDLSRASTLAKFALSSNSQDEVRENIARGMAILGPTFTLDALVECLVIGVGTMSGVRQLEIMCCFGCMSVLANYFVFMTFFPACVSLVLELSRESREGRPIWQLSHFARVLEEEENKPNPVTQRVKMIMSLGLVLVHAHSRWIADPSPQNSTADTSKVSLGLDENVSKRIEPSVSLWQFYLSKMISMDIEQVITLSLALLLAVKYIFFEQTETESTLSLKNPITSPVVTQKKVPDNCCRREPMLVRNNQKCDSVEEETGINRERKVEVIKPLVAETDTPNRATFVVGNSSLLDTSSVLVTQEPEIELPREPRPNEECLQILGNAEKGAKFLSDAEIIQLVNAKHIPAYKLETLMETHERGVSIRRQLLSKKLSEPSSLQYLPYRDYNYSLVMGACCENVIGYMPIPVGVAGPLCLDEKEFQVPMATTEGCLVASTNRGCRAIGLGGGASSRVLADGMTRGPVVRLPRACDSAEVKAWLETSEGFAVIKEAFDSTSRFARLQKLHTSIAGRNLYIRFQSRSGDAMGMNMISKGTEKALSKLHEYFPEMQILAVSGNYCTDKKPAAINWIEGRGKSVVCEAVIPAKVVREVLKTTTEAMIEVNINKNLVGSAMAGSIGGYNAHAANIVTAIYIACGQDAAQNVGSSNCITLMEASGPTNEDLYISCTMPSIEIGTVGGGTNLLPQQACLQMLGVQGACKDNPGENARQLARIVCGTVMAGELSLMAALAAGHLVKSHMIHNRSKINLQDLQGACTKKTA
Test: not given
Further details: species or system Escherichia coli.
Conditions: not given
Turning to GOLD SODIUM THIOMALATE, the IC50 entry is “Not Active” and the Ki entry is “Not Active”.
Turning to `CC[N+](CC)(CC)CCOc1cccc(OCC[N+](CC)(CC)CC)c1OCC[N+](CC)(CC)CC.[I-].[I-].[I-]` [GALLAMINE TRIETHIODIDE], the IC50 entry is recorded as “Not Active”.
The same measure, in the same setting: as for `OCc1ccccc1` [BENZYL ALCOHOL], the entry is “Not Active”.

The next assay deals with T4, Alpha-1D adrenergic receptor (Homo sapiens, UniProt P25100).
T4 sequence (P25100 whole entry): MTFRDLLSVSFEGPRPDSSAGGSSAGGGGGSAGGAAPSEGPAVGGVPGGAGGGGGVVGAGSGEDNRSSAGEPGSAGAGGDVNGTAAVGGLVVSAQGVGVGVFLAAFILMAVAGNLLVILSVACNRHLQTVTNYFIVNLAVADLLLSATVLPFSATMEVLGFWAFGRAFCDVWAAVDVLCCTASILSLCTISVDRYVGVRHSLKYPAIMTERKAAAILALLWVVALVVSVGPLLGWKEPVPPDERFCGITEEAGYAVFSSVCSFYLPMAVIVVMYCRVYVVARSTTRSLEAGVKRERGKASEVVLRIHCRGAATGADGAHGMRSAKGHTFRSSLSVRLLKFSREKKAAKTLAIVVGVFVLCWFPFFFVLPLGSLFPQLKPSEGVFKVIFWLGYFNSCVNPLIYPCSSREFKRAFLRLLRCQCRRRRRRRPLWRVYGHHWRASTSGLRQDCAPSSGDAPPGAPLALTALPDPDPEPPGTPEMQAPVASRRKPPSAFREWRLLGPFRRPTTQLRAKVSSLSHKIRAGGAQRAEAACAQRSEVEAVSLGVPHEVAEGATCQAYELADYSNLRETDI
Test: not given
The format is cell membranes, HEK293, Membrane. As to conditions: hek293.
On to GOLD SODIUM THIOMALATE, for which the IC50 result is recorded as “Not Active” and the Ki entry was “Not Active”.
On to `CC[N+](CC)(CC)CCOc1cccc(OCC[N+](CC)(CC)CC)c1OCC[N+](CC)(CC)CC.[I-].[I-].[I-]` [GALLAMINE TRIETHIODIDE], for which the IC50 entry is “Not Active”.
Same read-out and setting: to `OCc1ccccc1` [BENZYL ALCOHOL] belongs “Not Active”.

Test system in a further assay: not listed separately
Description: DRUGMATRIX: Glutamate, NMDA, Phencyclidine radioligand binding (ligand: [3H] TCP). The format is cell membranes, Rattus norvegicus, Wistar, Cerebral cortex, Membrane. The note with it: Not Active = under 50% inhibition at 10 µM.
As for GOLD SODIUM THIOMALATE, the IC50 entry was “Not Active” and the Ki result is “Not Active”.
As to `CC[N+](CC)(CC)CCOc1cccc(OCC[N+](CC)(CC)CC)c1OCC[N+](CC)(CC)CC.[I-].[I-].[I-]` [GALLAMINE TRIETHIODIDE], the IC50 result was “Not Active” and the Ki result is recorded as “Not Active”.
On to `OCc1ccccc1` [BENZYL ALCOHOL], for which the IC50 result is listed as “Not Active” and the Ki entry was “Not Active”.

The target in a further assay is Prostaglandin G/H synthase 1 (Homo sapiens, UniProt P23219). Description: biochemical. The format is tissue-based, Platelet. The note with it: platelet.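 Note: inhibition of COX-1 enzyme activity, with arachidonic acid supplied as substrate; in other assays of this panel Not Active means under 50% inhibition at 10 µM.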
Chain of Prostaglandin G/H synthase 1 (P23219 whole entry): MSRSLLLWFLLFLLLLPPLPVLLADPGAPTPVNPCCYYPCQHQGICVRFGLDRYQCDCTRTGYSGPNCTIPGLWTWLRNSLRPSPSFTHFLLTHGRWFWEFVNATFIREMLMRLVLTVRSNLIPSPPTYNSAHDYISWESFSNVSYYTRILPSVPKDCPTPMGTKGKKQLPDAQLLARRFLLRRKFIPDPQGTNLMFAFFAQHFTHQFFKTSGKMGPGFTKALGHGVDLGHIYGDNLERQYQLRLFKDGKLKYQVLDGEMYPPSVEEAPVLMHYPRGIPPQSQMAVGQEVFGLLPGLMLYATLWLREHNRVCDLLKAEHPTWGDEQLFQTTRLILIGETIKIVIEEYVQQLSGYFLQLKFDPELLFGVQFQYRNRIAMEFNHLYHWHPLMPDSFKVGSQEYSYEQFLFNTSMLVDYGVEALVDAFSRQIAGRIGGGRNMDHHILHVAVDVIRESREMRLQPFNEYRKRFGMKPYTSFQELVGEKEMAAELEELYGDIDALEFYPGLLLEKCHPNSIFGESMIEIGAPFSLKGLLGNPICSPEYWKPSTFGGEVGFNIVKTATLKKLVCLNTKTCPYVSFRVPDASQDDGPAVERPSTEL
GOLD SODIUM THIOMALATE: the IC50 result was “Not Active” and the Ki result was “Not Active”.
Regarding `CC[N+](CC)(CC)CCOc1cccc(OCC[N+](CC)(CC)CC)c1OCC[N+](CC)(CC)CC.[I-].[I-].[I-]` [GALLAMINE TRIETHIODIDE], the IC50 result is recorded as “Not Active”.
On the same count and under the same terms, as for `OCc1ccccc1` [BENZYL ALCOHOL], the entry is “Not Active”.
